# From the supplement of paper PMC10307832
# Assays:
# Experiment in all cases: relative viability (nuclei count vs DMSO), 5 days (fraction); higher = more cells survive
# Bleomycin + Luminespib = compound: CC1=C(N=C(N=C1N)[C@H](CC(=O)N)NC[C@@H](C(=O)N)N)C(=O)N[C@@H]([C@H](C2=CN=CN2)OC3C(C(C(C(O3)CO)O)O)OC4C(C(C(C(O4)CO)O)OC(=O)N)O)C(=O)N[C@H](C)[C@H]([C@H](C)C(=O)N[C@@H]([C@@H](C)O)C(=O)NCCC5=NC(=CS5)C6=NC(=CS6)C(=O)NCCC[S+](C)C)O [Bleomycin] + CCNC(=O)c1noc(-c2cc(C(C)C)c(O)cc2O)c1-c1ccc(CN2CCOCC2)cc1 [Luminespib] (partner 0.01 µM); conditions: main component drawn
# Summary of the method: (§1)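 For relative viability, nuclei counts in treated wells were divided by those in vehicle wells. Lung cancer cell lines had been pin-tool dosed in 1536-well plates the day after seeding and cultured for 5 days, then fixed and stained in one step (final 0.05% Triton X-100, 1% formaldehyde, 1 ug/ml Hoechst) and imaged at 4×. Doses were one drug alone or a fixed anchor-drug dose plus five library-drug doses (not always all listed) in √10 steps, and values are duplicate-plate medians.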
# Etoposide + AZD7762 = compound: COc1cc([C@@H]2c3cc4c(cc3[C@@H](O[C@@H]3O[C@@H]5CO[C@@H](C)O[C@H]5[C@H](O)[C@H]3O)[C@H]3COC(=O)[C@H]23)OCO4)cc(OC)c1O [Etoposide] + NC(=O)Nc1cc(-c2cccc(F)c2)sc1C(=O)N[C@H]1CCCNC1 [AZD7762] (partner 0.2 µM)
# Summary of the method: as §1
# Etoposide + Pictilisib = compound: COc1cc([C@@H]2c3cc4c(cc3[C@@H](O[C@@H]3O[C@@H]5CO[C@@H](C)O[C@H]5[C@H](O)[C@H]3O)[C@H]3COC(=O)[C@H]23)OCO4)cc(OC)c1O [Etoposide] + CS(=O)(=O)N1CCN(Cc2cc3nc(-c4cccc5[nH]ncc45)nc(N4CCOCC4)c3s2)CC1 [Pictilisib] (partner 1 µM)
# Summary of the method: as §1
# Bleomycin + Olaparib = compound: CC1=C(N=C(N=C1N)[C@H](CC(=O)N)NC[C@@H](C(=O)N)N)C(=O)N[C@@H]([C@H](C2=CN=CN2)OC3C(C(C(C(O3)CO)O)O)OC4C(C(C(C(O4)CO)O)OC(=O)N)O)C(=O)N[C@H](C)[C@H]([C@H](C)C(=O)N[C@@H]([C@@H](C)O)C(=O)NCCC5=NC(=CS5)C6=NC(=CS6)C(=O)NCCC[S+](C)C)O [Bleomycin] + O=C(c1cc(Cc2n[nH]c(=O)c3ccccc23)ccc1F)N1CCN(C(=O)C2CC2)CC1 [Olaparib] (partner 8 µM); conditions: main component drawn
# Summary of the method: as §1
Cell Line,relative viability (Bleomycin + Luminespib; first compound 0.01 µM),relative viability (Bleomycin + Luminespib; first compound 0.03162 µM),relative viability (Bleomycin + Luminespib; first compound 0.1 µM),relative viability (Bleomycin + Luminespib; first compound 0.3162 µM),relative viability (Bleomycin + Luminespib; first compound 1 µM),relative viability (Etoposide + AZD7762; first compound 0.01 µM),relative viability (Etoposide + AZD7762; first compound 0.03162 µM),relative viability (Etoposide + AZD7762; first compound 0.1 µM),relative viability (Etoposide + AZD7762; first compound 0.3162 µM),relative viability (Etoposide + AZD7762; first compound 1 µM),relative viability (Etoposide + Pictilisib; first compound 0.01 µM),relative viability (Etoposide + Pictilisib; first compound 0.03162 µM),relative viability (Etoposide + Pictilisib; first compound 0.1 µM),relative viability (Etoposide + Pictilisib; first compound 0.3162 µM),relative viability (Etoposide + Pictilisib; first compound 1 µM),relative viability (Bleomycin + Olaparib; first compound 0.01 µM),relative viability (Bleomycin + Olaparib; first compound 0.03162 µM),relative viability (Bleomycin + Olaparib; first compound 0.1 µM),relative viability (Bleomycin + Olaparib; first compound 0.3162 µM),relative viability (Bleomycin + Olaparib; first compound 1 µM)
H3255,0.817,0.878,0.652,0.52,0.351,0.949,0.95,0.726,0.66,0.668,0.498,0.499,0.381,0.411,0.298,0.491,0.519,0.495,0.373,0.344
NCI-H1437,1.01,0.999,1,0.63,0.585,1.03,1.11,1.14,1.07,0.722,0.588,0.504,0.21,0.209,0.122,0.571,0.593,0.499,0.397,0.378
LU99A,0.297,0.283,0.256,0.172,0.162,0.424,0.351,0.17,0.175,0.117,0.362,0.337,0.237,0.212,0.159,0.209,0.24,0.202,0.141,0.118
HCC-827,0.525,0.576,0.377,0.39,0.233,0.206,0.223,0.185,0.167,0.177,1.03,0.878,0.564,0.479,0.366,0.522,–,0.446,0.209,0.161
LK-2,0.172,0.15,0.185,0.161,0.169,0.395,0.659,0.255,0.319,0.2,0.573,0.572,0.407,0.476,0.26,0.369,0.451,0.279,0.163,0.165
BEN,0.327,0.329,0.342,0.332,0.2,0.828,0.818,–,0.665,0.606,0.477,0.62,–,0.545,0.376,0.97,1.03,0.899,0.809,0.733
NCI-H2347,0.275,0.381,0.431,0.235,0.385,0.685,0.828,0.311,0.374,0.367,0.921,0.757,0.309,0.285,0.392,0.581,0.573,0.466,0.45,0.413
NCI-H1395,0.648,0.648,0.54,0.397,0.47,0.423,0.435,0.4,0.375,0.362,0.618,0.665,0.591,0.551,0.446,0.434,0.448,0.406,0.35,0.377
201T,1.06,0.984,0.936,0.667,0.656,0.612,0.751,0.47,0.492,0.37,0.677,0.767,0.652,0.63,0.445,0.759,0.763,0.715,0.507,0.411
NCI-H2170,0.604,0.494,0.593,0.355,0.515,0.721,0.882,–,0.881,0.482,0.315,0.306,–,0.336,0.255,0.508,0.523,0.397,0.361,0.3
NCI-H727,0.375,0.376,0.357,–,0.223,0.647,0.582,0.405,0.527,0.579,0.327,0.469,0.215,0.444,0.35,0.732,0.634,0.612,0.592,0.624
HCC-15,0.183,0.231,0.203,0.164,0.144,1.2,1.34,1.32,1.01,0.777,0.758,0.713,0.428,0.292,0.141,0.629,0.689,0.508,0.224,0.238
ABC-1,0.578,0.737,0.561,0.198,0.225,0.978,0.851,0.468,0.425,0.369,0.765,0.711,0.386,0.345,0.228,0.851,1.04,0.849,0.818,0.232
LCLC-103H,0.849,0.826,0.747,0.496,0.333,0.756,0.787,0.597,0.742,0.608,0.541,0.74,0.527,0.679,0.519,0.717,0.735,0.724,0.56,0.384
NCI-H460,0.0436,0.0291,0.0214,0.0162,0.0138,0.61,0.704,0.407,0.0776,0.0538,0.393,0.434,0.151,0.076,0.0793,0.212,0.159,0.12,0.0368,0.073
EPLC-272H,0.361,0.23,0.203,0.145,0.133,0.272,0.269,0.183,0.182,0.0802,0.345,0.371,0.281,0.278,0.233,0.407,0.237,0.183,0.0606,0.111
